Experimental data from ChEMBL document CHEMBL3632483, “Synthesis and pharmacological evaluation of piperidine (piperazine)-substituted benzoxazole derivatives as multi-target antipsychotics” (Bioorg Med Chem Lett, 2015).

Legend:
[1] = biological target: T1, Adrenergic receptor alpha-1 (Rattus norvegicus, UniProt P15823+P23944+P43140); experiment: Displacement of [3H]prazosin from adrenergic alpha1 receptor in rat cerebral cortex homogenates after 60 mins by liquid scintillation counting; format: tissue-based
T1 sequence (P15823 whole entry): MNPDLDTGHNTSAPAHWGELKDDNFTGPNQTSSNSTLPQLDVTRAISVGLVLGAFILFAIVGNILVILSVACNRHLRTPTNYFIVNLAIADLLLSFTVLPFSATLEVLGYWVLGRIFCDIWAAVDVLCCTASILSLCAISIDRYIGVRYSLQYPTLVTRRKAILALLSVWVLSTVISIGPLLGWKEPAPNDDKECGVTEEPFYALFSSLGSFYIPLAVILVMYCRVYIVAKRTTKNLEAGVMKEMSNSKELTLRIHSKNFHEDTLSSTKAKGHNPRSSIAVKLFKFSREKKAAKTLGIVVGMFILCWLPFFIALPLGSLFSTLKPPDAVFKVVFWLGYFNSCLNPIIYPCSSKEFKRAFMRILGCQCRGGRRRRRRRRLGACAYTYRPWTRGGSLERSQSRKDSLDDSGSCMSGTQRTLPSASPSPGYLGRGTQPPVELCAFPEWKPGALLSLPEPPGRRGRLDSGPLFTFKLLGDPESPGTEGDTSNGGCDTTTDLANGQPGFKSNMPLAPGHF
T1 sequence (P23944 whole entry): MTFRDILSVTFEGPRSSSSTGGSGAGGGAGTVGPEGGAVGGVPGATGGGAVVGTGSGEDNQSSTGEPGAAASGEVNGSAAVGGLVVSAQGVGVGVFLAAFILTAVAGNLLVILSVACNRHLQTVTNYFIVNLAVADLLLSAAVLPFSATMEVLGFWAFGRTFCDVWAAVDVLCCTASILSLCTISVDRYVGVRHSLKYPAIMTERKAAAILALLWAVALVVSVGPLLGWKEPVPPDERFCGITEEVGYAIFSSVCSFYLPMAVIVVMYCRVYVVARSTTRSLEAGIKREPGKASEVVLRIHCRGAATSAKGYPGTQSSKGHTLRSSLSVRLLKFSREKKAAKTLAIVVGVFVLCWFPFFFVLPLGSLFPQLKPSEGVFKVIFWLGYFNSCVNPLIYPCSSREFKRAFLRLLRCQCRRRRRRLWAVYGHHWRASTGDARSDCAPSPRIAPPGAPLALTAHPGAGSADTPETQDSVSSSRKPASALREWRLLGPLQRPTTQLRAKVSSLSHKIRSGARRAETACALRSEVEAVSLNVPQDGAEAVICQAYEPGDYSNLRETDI
T1 sequence (P43140 whole entry): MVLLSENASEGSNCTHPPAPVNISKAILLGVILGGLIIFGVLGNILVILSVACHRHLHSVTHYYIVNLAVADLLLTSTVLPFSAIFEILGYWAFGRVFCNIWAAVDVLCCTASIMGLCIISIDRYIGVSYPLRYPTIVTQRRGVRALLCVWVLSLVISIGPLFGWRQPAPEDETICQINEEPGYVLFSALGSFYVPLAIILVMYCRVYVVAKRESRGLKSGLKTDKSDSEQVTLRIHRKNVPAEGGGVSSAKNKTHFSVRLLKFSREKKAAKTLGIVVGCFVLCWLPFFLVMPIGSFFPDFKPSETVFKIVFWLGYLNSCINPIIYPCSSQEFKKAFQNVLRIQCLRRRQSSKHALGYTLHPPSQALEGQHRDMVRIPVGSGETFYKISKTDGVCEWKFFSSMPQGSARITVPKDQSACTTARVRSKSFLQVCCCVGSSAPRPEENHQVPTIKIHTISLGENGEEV

D(2) dopamine receptor = D(2) dopamine receptor (Rattus norvegicus, UniProt P61169); experiment: Displacement of [3H]spiperone from dopaminergic D2 receptor in rat striatum homogenates after 60 mins by liquid scintillation counting
[2] = biological target: 5-hydroxytryptamine receptor 7 (Rattus norvegicus, UniProt P32305); experiment: biochemical
Description: Displacement of [3H]-5-CT from 5-HT7 receptor in rat hypothalamus homogenates after 120 mins by liquid scintillation counting

[3] = biological target: T2, 5-hydroxytryptamine receptor 1A (Rattus norvegicus, UniProt P19327); experiment: Displacement of [3H]8-OH-DPAT from 5-HT1A receptor in rat cerebral cortex homogenates after 60 mins by liquid scintillation counting; format: tissue-based
T2 sequence (P19327 whole entry): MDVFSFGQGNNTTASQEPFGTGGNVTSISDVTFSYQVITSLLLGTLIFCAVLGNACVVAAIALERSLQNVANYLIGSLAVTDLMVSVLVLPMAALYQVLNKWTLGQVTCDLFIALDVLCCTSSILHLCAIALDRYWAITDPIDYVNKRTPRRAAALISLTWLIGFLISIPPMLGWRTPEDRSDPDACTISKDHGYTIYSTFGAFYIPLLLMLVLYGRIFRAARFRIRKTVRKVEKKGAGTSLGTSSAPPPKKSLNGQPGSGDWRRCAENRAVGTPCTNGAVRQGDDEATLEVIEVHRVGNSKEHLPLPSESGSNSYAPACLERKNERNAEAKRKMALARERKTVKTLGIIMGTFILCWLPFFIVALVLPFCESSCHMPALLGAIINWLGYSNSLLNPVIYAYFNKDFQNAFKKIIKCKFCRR

[4] = biological target: 5-hydroxytryptamine receptor 2A (Rattus norvegicus, UniProt P14842); experiment: Displacement of [3H]ketanserine from 5-HT2A receptor in rat cerebral cortex homogenates after 60 mins by liquid scintillation counting; format: tissue-based
[5] = biological target: T3, 5-hydroxytryptamine receptor 2C (Rattus norvegicus, UniProt P08909); experiment: Displacement of [3H]mesulergine from 5-HT2C receptor in rat cerebral cortex homogenates after 60 mins by liquid scintillation counting; format: tissue-based
T3 sequence (P08909 whole entry): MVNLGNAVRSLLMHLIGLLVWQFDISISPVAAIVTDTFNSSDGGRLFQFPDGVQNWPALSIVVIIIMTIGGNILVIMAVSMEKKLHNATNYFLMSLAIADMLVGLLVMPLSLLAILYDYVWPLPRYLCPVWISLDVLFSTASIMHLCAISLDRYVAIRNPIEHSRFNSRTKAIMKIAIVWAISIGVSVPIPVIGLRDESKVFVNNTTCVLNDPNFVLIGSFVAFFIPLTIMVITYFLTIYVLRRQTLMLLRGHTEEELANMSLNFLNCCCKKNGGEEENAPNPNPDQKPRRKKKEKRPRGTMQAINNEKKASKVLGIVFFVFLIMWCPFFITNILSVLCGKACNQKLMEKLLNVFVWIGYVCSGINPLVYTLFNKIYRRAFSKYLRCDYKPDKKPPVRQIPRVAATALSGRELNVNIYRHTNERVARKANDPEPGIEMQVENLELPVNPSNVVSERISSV

[6] = Acute toxicity in Sprague-Dawley rat; format: organism-based; details: in vivo

5-hydroxytryptamine receptor 7, sequence (P32305 whole entry): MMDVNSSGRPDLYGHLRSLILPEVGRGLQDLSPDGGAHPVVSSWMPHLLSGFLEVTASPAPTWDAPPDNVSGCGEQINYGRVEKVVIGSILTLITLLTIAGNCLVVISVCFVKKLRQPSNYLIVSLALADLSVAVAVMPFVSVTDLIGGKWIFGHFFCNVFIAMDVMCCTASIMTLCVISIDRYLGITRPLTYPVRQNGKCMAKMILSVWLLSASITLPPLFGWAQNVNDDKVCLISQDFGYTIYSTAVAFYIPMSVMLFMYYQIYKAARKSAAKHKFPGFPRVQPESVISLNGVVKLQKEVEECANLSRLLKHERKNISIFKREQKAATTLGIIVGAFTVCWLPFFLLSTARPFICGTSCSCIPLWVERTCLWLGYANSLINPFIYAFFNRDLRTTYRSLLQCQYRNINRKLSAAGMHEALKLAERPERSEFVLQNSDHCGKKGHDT
5-hydroxytryptamine receptor 2A, sequence (P14842 whole entry): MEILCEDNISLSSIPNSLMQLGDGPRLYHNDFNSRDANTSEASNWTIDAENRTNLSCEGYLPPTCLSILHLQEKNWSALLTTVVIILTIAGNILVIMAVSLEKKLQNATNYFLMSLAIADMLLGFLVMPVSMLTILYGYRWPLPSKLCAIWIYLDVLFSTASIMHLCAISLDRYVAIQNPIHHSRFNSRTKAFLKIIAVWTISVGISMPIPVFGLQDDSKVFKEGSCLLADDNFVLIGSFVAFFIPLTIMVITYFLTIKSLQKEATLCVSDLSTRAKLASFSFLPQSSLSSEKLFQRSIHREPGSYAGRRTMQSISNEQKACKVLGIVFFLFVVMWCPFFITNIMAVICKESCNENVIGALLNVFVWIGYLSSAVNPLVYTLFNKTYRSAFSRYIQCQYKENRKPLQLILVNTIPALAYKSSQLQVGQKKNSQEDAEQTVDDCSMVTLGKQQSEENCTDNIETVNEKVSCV
D(2) dopamine receptor, sequence (P61169 whole entry): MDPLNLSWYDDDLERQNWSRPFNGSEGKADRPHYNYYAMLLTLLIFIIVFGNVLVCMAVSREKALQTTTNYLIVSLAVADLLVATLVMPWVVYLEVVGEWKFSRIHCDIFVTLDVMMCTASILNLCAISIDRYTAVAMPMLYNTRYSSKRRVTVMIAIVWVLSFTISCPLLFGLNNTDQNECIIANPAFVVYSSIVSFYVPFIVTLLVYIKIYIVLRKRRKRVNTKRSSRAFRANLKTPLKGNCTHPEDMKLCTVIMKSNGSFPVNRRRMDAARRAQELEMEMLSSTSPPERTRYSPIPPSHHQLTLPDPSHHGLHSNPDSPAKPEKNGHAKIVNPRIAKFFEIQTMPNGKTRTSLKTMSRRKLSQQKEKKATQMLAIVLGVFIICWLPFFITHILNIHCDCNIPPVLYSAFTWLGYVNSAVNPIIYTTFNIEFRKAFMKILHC

Structure (SMILES) | Ki [1] [nM] | Ki (D(2) dopamine receptor) [nM] | Ki [2] [nM] | Ki [3] [nM] | Ki [4] [nM] | Ki [5] [nM] | LD50 [6] [mg/kg]
Fc1ccc2c(C3CCN(CCCOc4ccc(Cc5nc6ccccc6o5)cc4)CC3)noc2c1 | 3276 | 10.6 | 18.9 | 21.3 | 2.7 | 1990 | > 2000
Fc1ccc2c(C3CCN(CCCOc4ccc(-c5nc6ccccc6o5)cc4)CC3)noc2c1 | 95 | 22.1 | 765 | 83.5 | 8.3 | 186 | > 2000
